How the values were obtained:
Format in all cases: biochemical
[1] = target: T1, Human Factor XIIa (hFXIIa) (Homo sapiens, UniProt P00748); experiment: Determination of Human Factor XIIa (hFXIIa) inhibition, fluorogenic substrate IC50 assay; settings: fluorogenic substrate H-DPro-Phe-Arg-AFC at Km, 25° C., read-out: Human FXIIa IC50
T1 construct: purchased Enzyme Research Laboratories
T1 sequence (P00748 373-615 limits assumed): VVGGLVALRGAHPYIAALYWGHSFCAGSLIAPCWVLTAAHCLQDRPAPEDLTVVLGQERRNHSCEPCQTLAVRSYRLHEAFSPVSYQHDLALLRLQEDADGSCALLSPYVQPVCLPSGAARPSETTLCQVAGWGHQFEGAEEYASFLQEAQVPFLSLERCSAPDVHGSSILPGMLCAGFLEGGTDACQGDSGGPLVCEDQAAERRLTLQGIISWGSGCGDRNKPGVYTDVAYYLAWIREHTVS
T1 sequence (P00748 20-372 partner limits assumed): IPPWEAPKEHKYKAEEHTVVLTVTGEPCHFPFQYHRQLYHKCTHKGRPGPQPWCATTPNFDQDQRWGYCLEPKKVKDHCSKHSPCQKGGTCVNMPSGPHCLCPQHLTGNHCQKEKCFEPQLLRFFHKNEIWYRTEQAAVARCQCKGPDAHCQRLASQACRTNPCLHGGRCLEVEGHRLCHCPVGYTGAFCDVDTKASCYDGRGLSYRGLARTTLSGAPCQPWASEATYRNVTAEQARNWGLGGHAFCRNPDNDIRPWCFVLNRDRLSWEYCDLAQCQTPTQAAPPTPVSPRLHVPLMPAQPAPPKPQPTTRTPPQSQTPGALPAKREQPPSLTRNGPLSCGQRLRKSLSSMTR
Experimental: Determination of Human Factor XIIa (hFXIIa) inhibition
The Km for the cleavage of the substrate by hFXIIa was determined by standard transformation of the Michaelis-Menten equation, with subsequent inhibition assays performed at substrate Km concentration.

[2] = target: Thrombin (Homo sapiens, UniProt P00734); experiment: Related protease inhibition: Thrombin, fluorogenic substrate; settings: fluorogenic substrate at Km, 25° C., H1-H3 = % activity at 40 μM; for activity at 40 µM: read-out: IC50 (human thrombin) nM
Experimental: (§1) Human serine protease enzyme Plasma Kallikrein, KLK1, FXa, Plasmin, Thrombin and Trypsin were assayed for enzymatic activity using an appropriate fluorogenic substrate at Km concentration, FXIa at fixed substrate concentration of 100 μM and various concentrations of the test compound.

[3] = target: FXa (Homo sapiens, UniProt P00742); experiment: Related protease inhibition: FXa, fluorogenic substrate; settings: fluorogenic substrate at Km, 25° C., H1-H3 = % activity at 40 μM; for activity at 40 µM: read-out: IC50 (human FXa) nM
Experimental: as §1

Sequence of FXa (P00742 235-488 limits assumed): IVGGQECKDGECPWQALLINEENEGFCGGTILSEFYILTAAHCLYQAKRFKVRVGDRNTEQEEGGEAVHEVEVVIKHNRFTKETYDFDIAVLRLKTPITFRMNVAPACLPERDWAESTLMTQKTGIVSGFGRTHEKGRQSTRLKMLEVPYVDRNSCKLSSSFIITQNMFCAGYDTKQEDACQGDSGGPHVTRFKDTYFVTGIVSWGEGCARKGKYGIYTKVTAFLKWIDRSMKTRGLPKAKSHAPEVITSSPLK
Sequence of FXa (P00742 41-179 partner limits assumed): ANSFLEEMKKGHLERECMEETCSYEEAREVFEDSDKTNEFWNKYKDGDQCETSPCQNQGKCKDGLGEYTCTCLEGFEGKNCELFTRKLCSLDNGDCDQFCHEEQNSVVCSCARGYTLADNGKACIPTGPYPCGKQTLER

Row | IC50 [1] | activity at 40 µM [2] | activity at 40 µM [3] | IC50 [2] | IC50 [3] | SMILES
1 | 10000 to 40000 nM | > 80% | > 80% |  |  | CCNC(=O)c1nn(-c2cccc(Cl)c2CO)c2c1CCN(c1ccc3c(c1)C(=O)N(C)CC3)C2=O [Example 2052, 1-(3-chloro-2-(hydroxymethyl)phenyl)-N-ethyl-6-(2-methyl-1-oxo-1,2,3,4-tetrahydroisoquinolin-7-yl)-7-oxo-4,5,6,7-tetrahydro-1H-pyrazolo[3,4-c]pyridine-3-carboxamide]
2 | 1 to 10 nM |  |  | 1000 to 3000 nM | 10000 to 40000 nM | Cc1cc(CNC(=O)c2nn(-c3cc(Cl)cc(CN)c3)c3c2CCN(c2ccc4c(c2)C(=O)N(C)CC4)C3=O)nn1C [Example 2017, 1-(3-(Aminomethyl)-5-chlorophenyl)-N-((1,5-dimethyl-1H-pyrazol-3-yl)methyl)-6-(2-methyl-1-oxo-1,2,3,4-tetrahydroisoquinolin-7-yl)-7-oxo-4,5,6,7-tetrahydro-1H-pyrazolo[3,4-c]pyridine-3-carboxamide]
3 | 100 to 300 nM |  |  | 10000 to 40000 nM | 10000 to 40000 nM | CN1CCc2ccc(N3CCc4c(C(=O)NCC5CC5)nn(-c5cccc(CN)c5)c4C3=O)cc2C1=O [Example 2019, 1-(3-(aminomethyl)phenyl)-N-(cyclopropylmethyl)-6-(2-methyl-1-oxo-1,2,3,4-tetrahydroisoquinolin-7-yl)-7-oxo-4,5,6,7-tetrahydro-1H-pyrazolo[3,4-c]pyridine-3-carboxamide]
4 | 300 to 1000 nM | > 80% | 20 to 80% |  |  | CCNC(=O)c1nn(-c2cccc(Cl)c2)c2c1CCN(c1cc(N3C(=O)CC4CC43)ccc1F)C2=O (stereo not drawn) [Example 1433, 1-(3-chlorophenyl)-N-ethyl-6-(2-fluoro-5-(3-oxo-2-azabicyclo[3.1.0]hexan-2-yl)phenyl)-7-oxo-4,5,6,7-tetrahydro-1H-pyrazolo[3,4-c]pyridine-3-carboxamide]
5 | 10 to 100 nM | > 80% | 20 to 80% |  |  | CN1CCc2ccc(N3CCc4c(C(=O)NCC(=O)O)nn(-c5cc(Cl)cc(CN)c5)c4C3=O)cc2C1=O [Example 2056, (1-(3-(aminomethyl)-5-chlorophenyl)-6-(2-methyl-1-oxo-1,2,3,4-tetrahydroisoquinolin-7-yl)-7-oxo-4,5,6,7-tetrahydro-1H-pyrazolo[3,4-c]pyridine-3-carbonyl)glycine]

Second part, the compound before the results:

Row | SMILES | IC50 [1] | activity at 40 µM [2] | activity at 40 µM [3] | IC50 [2] | IC50 [3]
6 | CCNC(=O)c1nn(-c2cccc(Cl)c2)c2c1CCN(c1cccc(N3CC4(COC4)CC3=O)c1)C2=O [Example 1428, 1-(3-chlorophenyl)-N-ethyl-7-oxo-6-(3-(7-oxo-2-oxa-6-azaspiro[3.4]octan-6-yl)phenyl)-4,5,6,7-tetrahydro-1H-pyrazolo[3,4-c]pyridine-3-carboxamide] | 10000 to 40000 nM | > 80% | > 80% |  | 
7 | CN1CCc2ccc(N3CCc4c(C(=O)N[C@@H]5COC[C@H]5O)nn(-c5cccc(Cl)c5)c4C3=O)cc2C1=O [Example 1411, 1-(3-chlorophenyl)-N-((3R,4S)-4-hydroxytetrahydrofuran-3-yl)-6-(2-methyl-1-oxo-1,2,3,4-tetrahydroisoquinolin-7-yl)-7-oxo-4,5,6,7-tetrahydro-1H-pyrazolo[3,4-c]pyridine-3-carboxamide] | 300 to 1000 nM | > 80% | > 80% |  | 
8 | CCNC(=O)c1nn(-c2cccc(Cl)c2)c2c1CCN(c1cccc(N3CCN(C)CC3)c1)C2=O [Example 1423, 1-(3-Chlorophenyl)-N-ethyl-6-(3-(4-methylpiperazin-1-yl)phenyl)-7-oxo-4,5,6,7-tetrahydro-1H-pyrazolo[3,4-c]pyridine-3-carboxamide] | 1000 to 3000 nM | 20 to 80% | 20 to 80% |  | 
9 | CN1CCc2ccc(N3CCc4c(C(=O)N[C@H](CO)C5CC5)nn(-c5cccc(Cl)c5)c4C3=O)cc2C1=O [Example 1406, (S)-1-(3-chlorophenyl)-N-(1-cyclopropyl-2-hydroxyethyl)-6-(2-methyl-1-oxo-1,2,3,4-tetrahydroisoquinolin-7-yl)-7-oxo-4,5,6,7-tetrahydro-1H-pyrazolo[3,4-c]pyridine-3-carboxamide] | 100 to 300 nM | 20 to 80% | > 80% |  | 
10 | CCNC(=O)c1nn(-c2cccc(Cl)c2)c2c1CCN(c1ccc(OC)c(CN3CCCCC3)c1)C2=O [Example 1419, 1-(3-chlorophenyl)-N-ethyl-6-(4-methoxy-3-(piperidin-1-ylmethyl)phenyl)-7-oxo-4,5,6,7-tetrahydro-1H-pyrazolo[3,4-c]pyridine-3-carboxamide] | 1000 to 3000 nM | 20 to 80% | 20 to 80% |  | 
11 | CCNC(=O)c1nn(-c2cccc(Cl)c2)c2c1CCN(c1cccc(N3CCN(C)CC3=O)c1)C2=O [Example 1420, 1-(3-chlorophenyl)-N-ethyl-6-(3-(4-methyl-2-oxopiperazin-1-yl)phenyl)-7-oxo-4,5,6,7-tetrahydro-1H-pyrazolo[3,4-c]pyridine-3-carboxamide] | 3000 to 10000 nM | > 80% | > 80% |  | 
12 | CN1CCc2ccc(N3CCc4c(C(=O)NCC5CCOCC5)nn(-c5cccc(Cl)c5)c4C3=O)cc2C1 [Example 1027, 1-(3-chlorophenyl)-6-(2-methyl-1,2,3,4-tetrahydroisoquinolin-7-yl)-7-oxo-N-((tetrahydro-2H-pyran-4-yl)methyl)-4,5,6,7-tetrahydro-1H-pyrazolo[3,4-c]pyridine-3-carboxamide] | 300 to 1000 nM |  |  | > 100000 nM | 3000 to 10000 nM
13 | CN1CCc2ccc(N3CCc4c(C(=O)NCC5(O)CC5)nn(-c5cccc(Cl)c5)c4C3=O)cc2C1=O [Example 1421, 1-(3-chlorophenyl)-N-((1-hydroxycyclopropyl)methyl)-6-(2-methyl-1-oxo-1,2,3,4-tetrahydroisoquinolin-7-yl)-7-oxo-4,5,6,7-tetrahydro-1H-pyrazolo[3,4-c]pyridine-3-carboxamide] | 300 to 1000 nM | > 80% | > 80% |  | 
14 | COCCN1CCc2ccc(N3CCc4c(C(=O)NCC5CC5)nn(-c5cccc(Cl)c5)c4C3=O)cc2C1 [Example 1037, 1-(3-chlorophenyl)-N-(cyclopropylmethyl)-6-(2-(2-methoxyethyl)-1,2,3,4-tetrahydroisoquinolin-7-yl)-7-oxo-4,5,6,7-tetrahydro-1H-pyrazolo[3,4-c]pyridine-3-carboxamide] | 10 to 100 nM |  |  | > 100000 nM | > 100000 nM
15 | CN1CCc2ccc(N3CCc4c(C(=O)NC5CCNCC5(F)F)nn(-c5cccc(Cl)c5)c4C3=O)cc2C1=O (stereo not drawn) [Example 1424, 1-(3-chlorophenyl)-N-(3,3-difluoropiperidin-4-yl)-6-(2-methyl-1-oxo-1,2,3,4-tetrahydroisoquinolin-7-yl)-7-oxo-4,5,6,7-tetrahydro-1H-pyrazolo[3,4-c]pyridine-3-carboxamide] | 100 to 300 nM | > 80% | 20 to 80% |  | 
16 | CN1CCc2ccc(N3CCc4c(C(=O)NCCCO)nn(-c5cccc(Cl)c5)c4C3=O)cc2C1=O [Example 1417, 1-(3-chlorophenyl)-N-(3-hydroxypropyl)-6-(2-methyl-1-oxo-1,2,3,4-tetrahydroisoquinolin-7-yl)-7-oxo-4,5,6,7-tetrahydro-1H-pyrazolo[3,4-c]pyridine-3-carboxamide] | 300 to 1000 nM | 20 to 80% | 20 to 80% |  | 

— patent US20260132132A1, “3A,4,5,6-TETRAHYDRO-1 H-PYRAZOLO[3,4-C]PYRIDIN-7(7AH)-ONE DERIVATIVES AS FACTOR XIIA INHIBITORS” (KALVISTA PHARMACEUTICALS LIMITED, priority 2022, published 2026)
